These results are taken from patent US6476019B1, “Spirocyclic ligands for sigma receptors, and libraries and methods of use thereof” (Sepracor Inc., priority 1999, dated 2002).

Some targets named below: CYP3A4 (Homo sapiens, UniProt P08684); CYP2C19 (Homo sapiens, UniProt P33261); CYP2C9 (Homo sapiens, UniProt P11712); CYP2D6 (Homo sapiens, UniProt P10635).
The conditions of data set [1]: pH 7.5.
The nature of the next data set: Permeability. The class given is in vitro ADME. The following applies: not told; read-out: Permeability PupperX10^6 cm/s.
The test system of the next data set is DNA Synthesis. As to the kind of experiment: Safety Assessment: DNA Synthesis.
In the next data set the target is T1, CYP1A2 (Homo sapiens, UniProt P05177).
T1 sequence (P05177 1-516): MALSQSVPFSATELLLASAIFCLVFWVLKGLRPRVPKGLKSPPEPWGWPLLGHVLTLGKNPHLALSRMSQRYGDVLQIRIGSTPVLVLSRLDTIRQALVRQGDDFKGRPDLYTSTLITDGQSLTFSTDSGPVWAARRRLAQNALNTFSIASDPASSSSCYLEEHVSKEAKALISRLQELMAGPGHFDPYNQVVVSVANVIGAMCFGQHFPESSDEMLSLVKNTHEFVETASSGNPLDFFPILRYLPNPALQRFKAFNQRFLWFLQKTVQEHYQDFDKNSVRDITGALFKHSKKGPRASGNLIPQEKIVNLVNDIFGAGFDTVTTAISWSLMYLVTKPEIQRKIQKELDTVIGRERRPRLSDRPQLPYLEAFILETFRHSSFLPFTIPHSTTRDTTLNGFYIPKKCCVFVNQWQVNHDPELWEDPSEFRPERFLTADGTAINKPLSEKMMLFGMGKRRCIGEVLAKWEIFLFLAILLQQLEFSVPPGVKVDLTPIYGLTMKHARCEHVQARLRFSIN
As to the kind of experiment: In Vitro Metabolism (isozymes of P450) CYP1A2.

Data set [2] concerns the target T2, sigma-1 receptor (guinea pig brain) (Cavia porcellus, UniProt Q60492).
T2 construct: from tissue; host or cells: guinea pig brain
Kind of data set: Antagonism of haloperidol binding to guinea pig sigma-1 receptors. The following applies: sigma-1, guinea pig brain.

In another data set the test system is Protein Synthesis. Kind of data set: Safety Assessment: Protein Synthesis.

SMILES strings stand for the structures. Values after ≈ are worked out from the molar mass of the structure shown.

T2 sequence (Q60492 whole entry): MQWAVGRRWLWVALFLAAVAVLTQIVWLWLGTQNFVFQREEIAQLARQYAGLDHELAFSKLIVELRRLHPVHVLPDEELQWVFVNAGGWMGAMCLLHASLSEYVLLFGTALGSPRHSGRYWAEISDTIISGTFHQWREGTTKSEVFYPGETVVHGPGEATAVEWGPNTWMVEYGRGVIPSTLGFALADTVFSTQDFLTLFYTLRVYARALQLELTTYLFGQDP
Chain of CYP3A4 (P08684 whole entry): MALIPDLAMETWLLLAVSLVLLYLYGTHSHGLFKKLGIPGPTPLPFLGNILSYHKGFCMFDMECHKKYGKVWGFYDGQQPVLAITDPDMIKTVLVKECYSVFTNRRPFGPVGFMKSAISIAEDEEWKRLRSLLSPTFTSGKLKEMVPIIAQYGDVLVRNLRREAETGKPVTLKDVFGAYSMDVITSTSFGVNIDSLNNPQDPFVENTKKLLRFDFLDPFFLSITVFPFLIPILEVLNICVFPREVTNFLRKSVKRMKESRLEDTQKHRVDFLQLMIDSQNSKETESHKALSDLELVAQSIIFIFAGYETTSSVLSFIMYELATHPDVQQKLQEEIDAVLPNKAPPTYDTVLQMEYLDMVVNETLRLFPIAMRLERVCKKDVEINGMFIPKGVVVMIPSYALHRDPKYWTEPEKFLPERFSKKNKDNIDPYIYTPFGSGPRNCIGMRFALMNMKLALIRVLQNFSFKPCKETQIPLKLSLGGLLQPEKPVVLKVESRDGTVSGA
Chain of CYP2C9 (P11712 whole entry): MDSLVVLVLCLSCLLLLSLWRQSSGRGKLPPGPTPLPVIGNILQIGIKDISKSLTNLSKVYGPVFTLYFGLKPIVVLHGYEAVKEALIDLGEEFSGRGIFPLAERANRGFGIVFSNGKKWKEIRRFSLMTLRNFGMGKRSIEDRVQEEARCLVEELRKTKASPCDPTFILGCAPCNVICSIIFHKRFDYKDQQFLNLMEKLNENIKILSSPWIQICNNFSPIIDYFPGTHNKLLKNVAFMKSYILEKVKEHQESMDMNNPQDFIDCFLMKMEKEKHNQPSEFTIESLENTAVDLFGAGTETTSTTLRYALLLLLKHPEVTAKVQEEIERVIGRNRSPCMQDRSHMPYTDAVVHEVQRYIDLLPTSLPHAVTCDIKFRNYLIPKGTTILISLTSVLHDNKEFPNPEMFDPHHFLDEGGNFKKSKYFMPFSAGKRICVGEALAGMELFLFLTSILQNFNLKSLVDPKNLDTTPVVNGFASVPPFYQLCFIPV
Chain of CYP2C19 (P33261 whole entry): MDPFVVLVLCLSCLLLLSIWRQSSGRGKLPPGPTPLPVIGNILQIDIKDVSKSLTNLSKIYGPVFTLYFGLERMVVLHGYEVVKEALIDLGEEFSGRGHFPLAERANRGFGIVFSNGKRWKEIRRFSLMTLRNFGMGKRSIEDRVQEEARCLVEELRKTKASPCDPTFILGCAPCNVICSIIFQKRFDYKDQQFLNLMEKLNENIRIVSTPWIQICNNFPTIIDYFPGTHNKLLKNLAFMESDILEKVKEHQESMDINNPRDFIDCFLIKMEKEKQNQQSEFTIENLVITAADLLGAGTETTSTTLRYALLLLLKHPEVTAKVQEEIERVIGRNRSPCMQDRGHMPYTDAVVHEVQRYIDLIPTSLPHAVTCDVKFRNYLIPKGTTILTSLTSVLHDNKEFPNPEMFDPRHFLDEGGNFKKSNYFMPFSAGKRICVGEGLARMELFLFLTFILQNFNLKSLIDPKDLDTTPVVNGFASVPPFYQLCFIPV
Chain of CYP2D6 (P10635 whole entry): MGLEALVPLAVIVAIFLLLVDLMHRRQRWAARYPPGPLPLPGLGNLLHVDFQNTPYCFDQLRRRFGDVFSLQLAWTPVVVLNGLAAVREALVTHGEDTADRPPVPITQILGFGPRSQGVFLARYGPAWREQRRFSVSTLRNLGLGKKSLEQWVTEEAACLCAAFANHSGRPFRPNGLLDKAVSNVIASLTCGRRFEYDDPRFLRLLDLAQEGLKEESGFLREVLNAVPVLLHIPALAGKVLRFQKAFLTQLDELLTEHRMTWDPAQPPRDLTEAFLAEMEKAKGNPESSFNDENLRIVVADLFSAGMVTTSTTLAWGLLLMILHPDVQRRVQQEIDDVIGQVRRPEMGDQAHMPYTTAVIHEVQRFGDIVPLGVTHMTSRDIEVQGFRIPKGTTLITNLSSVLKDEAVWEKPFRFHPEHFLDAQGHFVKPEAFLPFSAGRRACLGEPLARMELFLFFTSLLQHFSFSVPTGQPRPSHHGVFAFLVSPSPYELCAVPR

By solubility is commonly meant the dissolved amount per volume that the medium holds. Low readings indicate little dissolved substance, high ones much dissolved substance. What is called IC50 is the point on the concentration scale where inhibition reaches its midpoint. Lower therefore signals inhibition by little substance. Usually % Inhibition stands for the change of the read-out against control, counted positive when it falls. The fraction unbound is the share of the substance not bound to proteins or other matrix. Lower therefore signals extensive binding. On to `O=C1CCC2(CCNCC2)Nc2ccccc21` [Compound 11, 3,4-Dihydrospiro[5H-1-benzazepine-2(1H), 4′-piperidin]-5-one], for which the CYP3A4 at CYP3A4 is <10 % inhibition. Further, in the data set with Cell Viability, the “Cell Viability” value was <10 % inhibition. The CYP2C19 at CYP2C19 was <10 % inhibition. The “Log D7.5” value in data set [1] was 0.48. Besides, in the data set with Caspase-3, the “Caspase-3 Induction % Induction” value is given as <10 % Induction. Besides, the Papp in “Permeability” came out at 4.7 ×10⁻⁶ cm/s. Further, the “DNA Synthesis” value in the data set with DNA Synthesis is <10 % inhibition. In addition, the “GSH Level (% Control)” value with GSH Level is listed as <10 % Control. For the same compound, the solubility in “physchem” was found to be 202 µM (≈ 46.5 µg/mL). Further, the CYP1A2 on CYP1A2 is on record as <10 % inhibition. For the same compound, in the data set with Membrane Integrity, the “Membrane Integrity” value is <10 % inhibition. Also, the “RedOx State” value in the data set with RedOx State is given as <10 % inhibition. In data set [2], the IC50 was > 1 µM. Besides, the “% Inhibition” value in [2] (test concentration not given) is <50%. The CYP2C9 on CYP2C9 was <10 % inhibition. For the same compound, the fraction unbound in the data set “in vitro” is 0.3. For the same compound, the CYP2D6 at CYP2D6 stood at 15 % inhibition. In addition, the “Protein Synthesis” value in the data set with Protein Synthesis is reported as 42 % inhibition.
